Reference: ChEMBL document CHEMBL4342426, “Structure-activity relationship of 4-azaindole-2-piperidine derivatives as agents against Trypanosoma cruzi” (Bioorg Med Chem Lett, 2020)

Legend:
[1] = in vitro; conditions: human, MRC5 SV2 cells
Description: Selectivity index, ratio of IC50 for human MRC5 SV2 cells to IC50 for Trypanosoma cruzi Tulahuen CL2 amastigotes infected in human MRC5 SV2 cells

[2] = cells; conditions: Homo sapiens, MRC-5 SV2, 72 h
Description: (§1) Cytotoxicity against human MRC5 SV2 cells assessed as reduction in cell viability incubated for 3 days by fluorimetry

[3] = test system: Trypanosoma cruzi; test: microbe, parasite or virus in culture; conditions: Tulahuen CL2, MRC-5 SV2, 168 h
Description: Antitrypanosomal activity against Trypanosoma cruzi Tulahuen CL2 amastigotes infected in human MRC5 SV2 cells incubated for 7 days by chlorophenol red beta-D-galactopyranoside substrate based spectrophotometric assay

[4] = in vitro; conditions: human, MRC5 SV2 cells; remark: listed apart in the source
Description: Selectivity index, ratio of IC50 for human MRC5 SV2 cells to IC50 for Trypanosoma brucei rhodesiense STIB900 trypomastigotes

[5] = test system: Trypanosoma brucei rhodesiense; test: microbe, parasite or virus in culture; conditions: STIB900, 72 h
Description: Antiprotozoal activity against Trypanosoma brucei rhodesiense STIB900 trypomastigotes incubated for 72 hrs by resazurin dye based fluorimetric analysis

[6] = test system: Trypanosoma brucei; test: microbe, parasite or virus in culture; conditions: Squib 427, 72 h
Description: Antitrypanosomal activity against Trypanosoma brucei Squib 427 assessed as reduction in parasite growth incubated for 72 hrs by resazurin dye based fluorimetric analysis

[7] = in vitro; conditions: mouse, peritoneal macrophages
Description: (§2) Cytotoxicity against mouse peritoneal Macrophage cells assessed as reduction in cell viability incubated for 3 days by fluorimetry

[8] = test system: Leishmania infantum; test: microbe, parasite or virus in culture; conditions: for IC50: MHOM/MA(BE)/67/ITMAP263, 120 h; for IC90: MHOM/MA(BE)/67/ITMAP263, in Mus musculus, 120 h
Description: Antileishmanial activity against amastigote stage of Leishmania infantum MHOM/MA(BE)/67/ITMAP263 infected in mouse peritoneal macrophage assessed as parasite growth inhibition incubated for 5 days by Giemsa staining based assay

[9] = in vitro; conditions: human, MRC5 SV2 cells; remark: listed apart in the source
Description: as §1

[10] = test system: Macrophage; test: cells; conditions: Mus musculus, 72 h
Description: as §2

[11] = physchem; conditions: buffer, pH 7.4
Description: Lipophilicity, logD of compound at pH 7.4 by HPLC analysis

[12] = in vitro; conditions: human, liver microsomes
Description: Metabolic stability in human liver microsomes assessed as intrinsic clearance at 0.5 uM incubated for 30 mins by LC-MS/MS analysis

[13] = in vitro; conditions: mouse, liver microsomes
Description: Metabolic stability in mouse liver microsomes assessed as intrinsic clearance at 0.5 uM incubated for 30 mins by LC-MS/MS analysis

[14] = in vitro; conditions: PAMPA
Description: Effective permeability of compound by PAMPA assay

IC50 [5] [µM] | IC90 [5] [µM] | IC50 [6] [µM] | IC90 [6] [µM] | IC90 at 72 h [7] [µM] | IC50 [8] [µM] | IC90 [8] [µM] | IC90 at 72 h [9] [µM] | logD [11] | CLint scaled at 0.5 h, 0.5 µM [12] [mL/min/kg] | microsomal CLint at 0.5 h, 0.5 µM [12] [µL/min/mg] | CLint scaled at 0.5 h, 0.5 µM [13] [mL/min/kg] | microsomal CLint at 0.5 h, 0.5 µM [13] [µL/min/mg] | Papp [14] [×10⁻⁶ cm/s] | Compound | selectivity ratio [1] | IC50 [2] [µM] | IC50 [3] [µM] | IC90 [3] [µM] | selectivity ratio [4] | IC50 [10] [µM]
35.4 | 64 | 51.1 | 64 | 64 | 64 | 64 | 64 |  |  |  |  |  |  | CC(C)c1cc(C(=O)N2CCCC(O)(c3cc4ncccc4n3S(=O)(=O)c3ccccc3)C2)on1 (centres undefined) | 1.26 | 64 | 51.3 | 64 | 1.8 | 64
30.3 | 64 | 64 | 64 | 64 | 24.7 | 46.1 | 64 | 2.89 | < 33.3 | < 23 | 1310 | 305 | 1.65 | O=C(c1ccccc1)N1CC=C(c2cc3ncccc3[nH]2)CC1 | 26.8 | 64 | 2.39 | 12.3 | 2.1 | 64
38.3 to 64 | 64 | 64 | 64 | 64 | 64 | 64 | 64 | 2.68 | 38.8 | 24.7 | 2360 | 508 | 2.88 | O=C(c1ccccc1)N1CCCC(c2cc3ncccc3[nH]2)C1 (centres undefined) | 7.13 to 7.5 | 64 | 8.5 to 9.02 | 31.1 to 45.3 | 1.7 | 64
4.6 | 23.7 | 64 | 64 | 64 | 52.5 | 64 | 64 | 3.88 | ≥ 392 | 363 | ≥ 1670 | 522 | 0.606 | O=C(Nc1cccc(-c2cc3ncccc3[nH]2)c1)c1ccccc1 | 30.7 | 64 | 2.08 | 3.8 | 13.9 | 64
32.8 | 60.7 | 64 | 64 | 64 | 64 | 64 | 64 | 2.86 | 41.3 | 38.3 | 1080 | 337 | 0.625 | O=C(c1ccc(F)cc1)N1CCCC(c2cc3ncccc3[nH]2)C1 (centres undefined) | 6.38 | 64 | 10 | 44.1 | 1.98 | 64
5.88 | 23.4 | 32 | 32 | 32 | 24.7 | 32 | 32 |  |  |  |  |  |  | COc1cccc2[nH]c(C(=O)N3CCCC(c4cc5ncccc5[nH]4)C3)cc12 (centres undefined) | 29.4 | 32 | 1.09 | 5.34 | 5.44 | 32
17.8 | 32 | 32 | 32 | 32 | 28.5 | 32 | 32 |  | 207 |  | 10300 |  |  | COc1ccc(Cl)cc1C(=O)N1CCCC(c2cc3ncccc3[nH]2)C1 (centres undefined) | 8.54 | 32 | 3.75 | 7.59 | 1.79 | 32
